Patent publication US20040219173A1, “METHOD FOR TREATING HIV” (priority 2000, published 2004)
Like-named read-outs stand apart in the source and are kept apart here.

What was measured:
[1] = Complications from use of the NaCl tablets in the test subjects; assay type: in vivo, human; details: Example II, 12 subjects, 250 mg tablets
Description: 12 representative persons would be treated by the inventive method, but with a 250 mg tablet of solid NaCI (except certain other ingredients also are incorporated into the tablets, for a total of 250 mg, for test subject nos. 11 and 12, as further discussed below).

[2] = cited from earlier work

[Cl-].[Na+] [NaCI, sodium chloride]
complications from use of the tablets [1]: No complications | saturation in water ([2]; 0°C): about 35.7 % by weight | saturation in water ([2]; room temperature (72°F, 22.2°C)): about 32.6 % by weight
